{"source": "patent US12433875B2", "about": "“(R)-4-(1-(6-(4-(trifluoromethyl)benzyl)-6-azaspiro[2.5]octane-5-carboxamido)-cyclopropyl) benzoic acid or its salt also in polymorphic form a for use in the prevention of heterotopic ossification” (ROTTAPHARM BIOTECH S.R.L., priority 2019, dated 2025)", "key": {"[1]": {"test_system": "Male Lewis rats (CIA model, heterotopic bone formation)", "assay": "Collagen Induce Arthritis (CIA) in rats, histological scores", "type": "in vivo, rat", "source_text": "Collagen Induce Arthritis (CIA) in rats is among the most common models used to mimic human arthritis and especially Rheumatoid Arthritis (RA). In general the joint response seen in this model is quite similar to that observed in human pathology, in terms of inflammation, bone erosion and cartilage damage. Nevertheless, this model differs from Rheumatoid Arthritis, since it is endowed with a consistent periosteal woven bone formation (immature bone) that is not a usual feature of human RA (maybe, less than 10% of patients have this type of bone reaction). On the contrary, this disordered apposition of new bone is the distinctive feature of heterotopic ossification. Therefore, this model was used to study the effect of the compound of the invention in Pathological heretopic osteogenesis.\nMale Lewis rats were immunized by intradermal injection at the base of the tail with an emulsion containing 150 μg of bovine collagen type II (bCII) in complete Freund's adjuvant (CFA) or received an injection with incomplete Freund's adjuvant (sham group). Three weeks after the first immunisation, animals were boosted with the same procedure. Three days after booster injection, arthritis had developed in all animals but the sham group. The administration of the compound (1) Form A started at this time point and lasted for 14 days (once a day, unless otherwise indicated).\nThe paws were fixed in 10% neutral buffered formalin (Bio-Optica, Milan, Italy) and subsequently decalcified in EDTA for 4 weeks. Samples were dehydrated in an ethanol series and embedded in paraffin. At least three non-consecutive sections for each paw were blindly scored at the level of the tarsus, metatarsus and calcaneus for the following histological features of woven bone. Two independent pathologists performed histopathology on blinded slides. The data of right and left hind limbs were summed for each rat.\nIn FIG. 3 the dose-response curve for the compound of the invention is reported. the compound was administered once a day for 14 days on the site where the pathological bone formation was expected as induced in the CIA model in rats. The dose were 1 mg/Kg, 3 mg/kg and 10 mg/kg. The data were expressed as the median (boxed area), 95% interquartile range (whiskers), and individual data (symbols) of the histological scores for heterotopic bone formation (osteogenesis) given by two pathologists unaware of the treatment groups on a following scale: 0=absent; 1=mild/focal; 2=moderate/multifocal; 3=severe/multifocal to diffuse. Since arthritis was bilateral, the scores for each rat was the sum of the two leg scores. […] The compound reached the maximal activity at 10 mg/kg.\nThe data were expressed as the median histological scores for heterotopic bone formation (osteogenesis) as described for FIG. 3. […] As for osteogenesis, the data reported in this graph were the median (boxed area), 95% interquartile range (whiskers), and individual data (symbols) of the histological scores for synovial hyperplasia (oedema) given by two pathologists unaware of the treatment groups on a following scale: 0=normal: 1-2 layers of synovial lining cells, 1=mild: focal to multifocal 3-4 layers of synovial lining cells and/or mild proliferation of subsynovial tissue, 2=moderate: focal to mutlitfocal >4-6 layers of synovial lining cells and/or moderate proliferation of subsynovial tissue, 3=severe: multifocal to diffuse >6-8 layers of synovial lining cells and/or severe proliferation of subsynovial tissue. Since arthritis was bilateral, the scores for each rat is the sum of the two leg scores. This underline a preferential and surprising effect of (R)-4-(1-(6-(4-(trifluoromethyl)benzyl)-6-azaspiro[2.5]octane-5-carboxamido)cyclopropyl)benzoic acid on the heterotopic bone formation, […].\nThe free acid form has been assayed in the rat CIA model as already described for its sodium salt (Form A). […]"}, "[2]": {"test_system": "human osteoblasts from patients with Osteoarthritis", "assay": "Pathological osteoblast proliferation induced by IL-1β, MTT assay", "type": "cell-based", "conditions": "IL-1β 2 ng/ml; time course 24 h, 6, 9 and 14 days; low concentrations; FIG. 11", "description": "Human osteoblasts were purified from material obtained from patients undergoing knee replacement. Trabecular bone cells were isolated by spontaneous outgrowth culture methods. Purified osteoblasts were stimulated with IL-1β 2 ng/ml. Osteoblast proliferation was studied by MTT analysis in time course experiments (24 h, 6, 9, and 14 days). The form A of the sodium salt of (R)-4-(1-(6-(4-(trifluoromethyl)benzyl)-6-azaspiro[2.5]octane-5-carboxamido)cyclopropyl)benzoic acid resulted to be extremely effective in preventing in vitro osteoblast proliferation stimulated by IL1b.\nThis model has been performed to understand if the compound of the invention could correct the pathological hyperproliferation of osteoblasts taken from patients suffering from degenerative pathologies eventually resulting in a total joint replacement surgical procedure.\nTrabecular bone of the tibial plateau was obtained from patients with Osteoarthritis (OA) undergoing joint replacement surgery. This material was purchased from Alphenyx (Marseille, France). […] The cell proliferation was analysed in a time course protocol by MTT assay. […] MTT was a tetrazolium salt especially useful to quantify living metabolically active cells. […] The plate was then read at λ=540 nm. […]"}}, "note": "Entries after “also recorded” stand apart in the source; their conditions may differ.", "data": [{"smiles": "O=C([O-])c1ccc(C2(NC(=O)[C@H]3CC4(CCN3Cc3ccc(C(F)(F)F)cc3)CC4)CC2)cc1.[Na+]", "note": "[Form A, sodium (R)-4-(1-(6-(4-(trifluoromethyl)benzyl)-6-azaspiro[2.5]octane-5-carboxamido)cyclopropyl)benzoate]", "values": [{"measurement": "activity against heterotopic ossification in combination with methotrexate", "setting": "[1]; 1 mg/kg combined with methotrexate 0.5 mg/kg every other day, FIG. 5", "value": "not hindered by the combination with this drug"}, {"measurement": "activity against heterotopic ossification compared with methotrexate", "setting": "[1]; 1 mg/kg vs methotrexate 0.5 mg/kg every other day, FIG. 5", "value": "higher than the comparative compound"}, {"measurement": "activity on heterotopic bone formation (osteogenesis) compared with Methylsulfonylmethane (MSM)", "setting": "[1]; 10 mg/kg once a day vs MSM 600 mg/kg, FIG. 4", "value": "greatly superior"}, {"measurement": "control of the inflammatory response (edema; histological scores for synovial hyperplasia)", "setting": "[1]; 15 mg/kg each, FIG. 6b", "value": "equally effective"}, {"measurement": "activity in preventing pathological heterotopic ossification compared with rofecoxib", "setting": "[1]; 15 mg/kg, identical dose of rofecoxib, FIG. 6a", "value": "surprisingly superior"}, {"measurement": "histological scores for heterotopic bone formation (osteogenesis)", "setting": "[1]; 1, 3 and 10 mg/kg once a day for 14 days, FIG. 3", "value": "capable to counteract the heterotopic bone formation; also recorded: able to counteract bony spur formation in a dose-dependent fashion"}, {"measurement": "lowest effective dose against heterotopic ossification", "setting": "[1]; FIG. 5", "value": 1, "unit": "mg/kg"}, {"measurement": "dose of maximal activity against heterotopic bone formation", "setting": "[1]; once a day for 14 days, FIG. 3", "value": 10, "unit": "mg/kg"}, {"measurement": "osteoblast proliferation (MTT)", "setting": "[2]", "value": "able to dose-dependently counteract osteoblast proliferation"}]}]}
